Measured values as given in patent publication US20220411847A1, “GLUCOSE/GALACTOSE BIOSENSORS AND METHODS OF USING SAME” (Duke University, priority 2015, published 2022).

How the values were obtained:
[1] = Galactose titration at room temperature on Nanodrop3300 fluorimeter; assay type: binding; conditions: ^e noisy data
Description: (§1) In addition to the Roche LightCycler, which has a limited choice of emission wavelengths, data for selected mutants also was measured at room temperature on a Nanodrop3300 (Thermo Scientific) fluorimeter, which records full emission spectra. Emission intensities at a particular wavelength were extracted by integration of the spectral emission intensities over a 20-nm interval centered on that wavelength.
(§2) Signals S (either single-wavelength emission intensities, LT, or ratios of intensities at two wavelengths, Rig) were fit to ligand-binding isotherms:
(§3) where [L] is the ligand concentration and Kd the dissociation constant corresponding to ^appKd or ^trueKd for fits to R12 (weighted by the relative contributions of ^satβ at the two different wavelengths) and Iλ respectively. For a given isothermal titration, values for ^appKd and ^true Kd were obtained using a non-linear fitting algorithm in which these two parameters were simultaneously fit to the three experimental binding isotherms using equations 29 and 30, with the two monochromatic isotherms sharing the same ^trueKd value. Three separate pairs of ^apoβ and ^satβ were fit in this procedure.

[2] = Galactose affinities of the mutants that bind glucose (Roche LightCycler); assay type: binding; conditions: trueKd at 25° C., 183C acrylodan conjugates, read-out: Kd^298K(galactose)/mM
Source text: (§4) Analysis of mutant affinity values: Isothermal glucose titrations were extracted from the fluorescent landscape or emission datasets as described above. Monochromatic emission intensities Iλ. (these intensities correspond to a bandpass intensity recorded with a physical filter in the case of the Roche LightCycler) were fit to
(§5) where ^apoIλ2 ^apoIλ2 and ^satIλ2^satIλ2 are the emission intensities of the monochromatic signal at wavelength λ2λ2 of the ligand-free and ligand-bound protein, respectively. Equation 28 illustrates that the ^appKd ^appKd values obtained by fits of 25 to ratiometric signals are wavelength dependent. To obtain wavelength-independent values needed for comparison of mutant proteins, it is necessary to simultaneously fit ^appKd ^appKd to the ratiometric signal and ^trueKd ^trueKd to the two monochromatic signals. For a given isothermal titration, values for ^appKd ^appKd and ^trueKd ^trueKd were obtained using a non-linear fitting algorithm in which these two parameters were simultaneously fit to the three experimental binding isotherms using equations 23 and 27, with the two monochromatic isotherms sharing the same ^trueKd ^trueKd value. Three separate pairs of linear ^apoβ ^apoβ and ^satβ ^satβ baselines were fit in this procedure. TABLES 1-5 record the ^trueKd ^trueKd values at 25° C., obtained by analysis of Roche LightCycler data in 488 nm and 510 nm channels. The uncertainty of the fit (‘error’) was obtained using a boot-strapping technique in which 37% of the data was replicated. In all cases, no binding was recorded if one of ^appKd ^appKd or ^trueKd ^trueKd exceeded 200 mM. The glucose constant of GGBP183 C-acrylodan is 4.21±0.08 mM at 25° C.
The galactose affinities for those mutants that bind glucose were also determined.

[3] = Isothermal glucose titrations from fluorescent landscapes (Roche LightCycler); assay type: binding
[4] = Fluorescence emission response to ligand binding; parameters: key to Response Intensity^c: +, increases in response to ligand; —: decreases; 0, no change in the glucose titration; key to Response Shape^b: m, monochromatic; d, dichromatic (i.e. spectral shape changes); 0, no change in the glucose titration; conditions: for Response Intensity^c / Response Shape^b: glucose titration, Nanodrop3300, room temperature
Description: (§6) The titration series were mixed with GGBP183C⋅acrylodan or BD_SM4⋅acrylodan conjugates in 384-well microtiter plates. The temperature dependence of the titrations was measured in a real-time PCR machine (Roche LightCycler 480) by determining the ratio of fluorescence emission intensities at 488, 510, and 580 nm (excitation at 440 nm) as a function of temperature (290-370K). Temperatures were advanced in 1K steps. At each temperature data was collected for at 1-second intervals for 60 seconds at which point the signal had relaxed to a steady value associated with the new temperature. Collection times were adjusted to minimize photobleaching (which was not detectable under these experimental conditions). Data reduction software was developed to convert these observations into time-independent datasets that record fluorescence as a function of temperature for each well and associate wells with their concentration of titrant and additive. Management tools were developed to maintain a database of titrations and their analyses.
as §1

[5] = Thermal denaturation followed by fluorescence ratio, two-state fit; assay type: physicochemical; conditions: for Tm/K: thermal stability of the 183C acrylodan conjugate mutant
Description: as §6
Fits of these equation systems to experimental observations such as shown in FIG. 5 require good initial estimates of the parameters. These can then be refined using multi-dimensional conjugate gradient methods. To obtain local fits for protein thermostability in the absence of ligand we solve
This gives excellent fits (FIG. 7).

[6] = Isothermal glucose titrations from fluorescent landscapes (Roche LightCycler); assay type: binding; remark: listed apart in the source
Description: as §6
The response of acrylodan to glucose binding was separated from the effects of thermal denaturation by extracting binding isotherms within the temperature range where the apo-protein remains >99% folded (T<320 K; FIG. 7). Within this temperature range, binding isotherms were constructed by extracting fluorescence values across different wells, each containing different glucose concentrations, at a given temperature, and fit individually with high accuracy to isotherms (FIG. 8):
using linear baselines which vary individually in accordance with the tilt of the S, S1, and S2 baseplanes that correspond the saturated glucose complex. The individually fit Kd(T) values were converted into ΔGb(T) and fit to the Gibbs-Helmholtz equation 9 (FIG. 9).
as §4, §5

[7] = Glucose titration at room temperature on Nanodrop3300 fluorimeter; assay type: binding
Description: as §1, §2, §3

[8] = Ca2+ binding followed through thermal stability shifts in the absence of glucose; conditions: 37° C.
Source text: GGBP binds Ca^2+ at a location remote from glucose (FIG. 1). The binding of Ca^2+ was investigated in the absence of glucose (FIG. 12). […] Nevertheless, Ca^2+ binding can be followed through its effect on protein stability (FIG. 13). […] However, at elevated concentrations, this stabilization effect levels off and addition of Ca^2+ becomes destabilizing. […] These effects can be modeled accurately by a fit of the ligand- and temperature-dependent free energy of stability for Ca^2+ (Judge et al. Diabetes Technol. Thera. 2011, 13, 309-317; Layton et al. Biochemistry 2010, 49, 10831-10841). The individual terms are cast in terms of T and [Ca^2+] using equations 4-9. However, rather than fitting fluorescent landscape data directly using 1, Tm and ΔHu, values are extracted at each Ca^2+ concentration using 16 and 17, and fit to the equation system by determining the root of 19 to obtain the calculated Tm value.

[9] = apparent, ratiometric signal at the listed wavelength pair, read-out: Affinities (mM)^d Galactose ^appKd
[10] = from monochromatic signals, read-out: Affinities (mM)^d Galactose ^trueKd
[11] = 37° C., mutations in GGBP183C⋅acrylodan, read-out: glucose Kd values at 37° C.
[12] = trueKd at 25° C., 183C acrylodan conjugates, LightCycler 488 nm and 510 nm channels, ± = bootstrap uncertainty of fit, read-out: Kd^298K(glucose)/mM
[13] = apparent, ratiometric signal at the listed wavelength pair, read-out: Affinities (mM)^d Glucose aPPKa
[14] = from monochromatic signals, read-out: Affinities (mM)^d Glucose trueKa

Substance	Kd [1, 9] [mM]	Kd [1, 10] [mM]	Kd [2] [mM]	Kd [3, 11] [mM]	effect of glucose binding on fluorescence ([4]; 488/580 ratio)	Response Intensity^c [4]	Response Shape^b [4]	Kd [6, 12] [mM]	Kd [7, 13] [mM]	Kd [7, 14] [mM]	Kd ([3]; 37° C. (310K), fit of equation 18, read-out: Kd, glucose binding isotherm) [mM]	Kd ([6]; 25° C., read-out: glucose constant) [mM]	Kd ([8]; read-out: Ca^2+ affinity in the native state at a single site) [µM]	Kd ([8]; read-out: calculated Kd for Ca2+, single folded state site) [µM]	Kd ([8]; read-out: calculated Kd for Ca2+, single, medium-affinity denatured state) [µM]	Kd ([8]; read-out: calculated Kd for Ca2+, two, low-affinity denatured states) [µM]	Tm/K [5] [K]	apoTm ([5]; apo-protein, two-state fit) [K]	ΔapoHu ([5]; apo-protein, two-state fit) [kcal/mol]	decrease in the affinity for glucose compared to the wild-type protein [6]
E149K: GGBP 183C acrylodan conjugate with mutation E149K	34	27	40.2 ± 1.3	~0.5		—	d	1.44 ± 0.04	1.5	1.2							321			
E149S: GGBP 183C acrylodan conjugate with mutation E149S	6.8	5.4	12.7 ± 15	~0.5		—	d	0.34 ± 0.01	0.38	0.36							320			
GGBP183C⋅acrylodan: E. coli glucose-galactose binding protein W183C mutant conjugated to acrylodan; parent sensor	31	24				—	d		6	4.4	6.58 ± 0.03	4.21 ± 0.08	~0.01	0.0108	370	8800		322.2	197.3	10,000 fold

These reach a lower Kd [1, 9]. Values come first.

Kd [1, 9] [mM]	Kd [1, 10] [mM]	Kd [2] [mM]	Kd [3, 11] [mM]	effect of glucose binding on fluorescence ([4]; 488/580 ratio)	Response Intensity^c [4]	Response Shape^b [4]	Kd [6, 12] [mM]	Kd [7, 13] [mM]	Kd [7, 14] [mM]	Kd ([3]; 37° C. (310K), fit of equation 18, read-out: Kd, glucose binding isotherm) [mM]	Kd ([6]; 25° C., read-out: glucose constant) [mM]	Kd ([8]; read-out: Ca^2+ affinity in the native state at a single site) [µM]	Kd ([8]; read-out: calculated Kd for Ca2+, single folded state site) [µM]	Kd ([8]; read-out: calculated Kd for Ca2+, single, medium-affinity denatured state) [µM]	Kd ([8]; read-out: calculated Kd for Ca2+, two, low-affinity denatured states) [µM]	Substance	Tm/K [5] [K]	apoTm ([5]; apo-protein, two-state fit) [K]	ΔapoHu ([5]; apo-protein, two-state fit) [kcal/mol]	decrease in the affinity for glucose compared to the wild-type protein [6]
4.5	6.6	7.5 ± 1	~13	increases the 488/580 ratio	—	d	5.9 ± 1	0.14	0.23							A155N: GGBP 183C acrylodan conjugate with mutation A155N	320			
2.3	2.1	10.8 ± 0.4	~0.5		—	d	0.46 ± 0.01	0.6	0.43							E149Q: GGBP 183C acrylodan conjugate with mutation E149Q	322			
